From patent US6610824B2 (Amylin Pharmaceuticals, Inc., priority 1991, dated 2003)
Where a SMILES comes first, the peptide text is derived from it.

Experiments:
Stability in solution = type: physicochemical; conditions: where a comparison is made, compared with human amylin
Excerpt: (§1) This may be due in some measure, although this is not known, to the different aggregation properties of the amylins from different species.
(§2) The agonist analogues of amylin of this invention are useful in view of their pharmacological properties. […] In addition to the description of compounds pursuant to FIG. 3, certain preferred compounds are set forth in Table I. The preferred compounds des-^1Lys-h-amylin [SEQ. ID. NO. 7], ^28Pro-h-amylin [SEQ. ID. NO. 8], ^25, 28, 29Pro-h-amylin [SEQ. ID. NO. 9], ^18Arg^25, 28Pro-h-amylin [SEQ. ID. NO. 10], and des-^1Lys^18Arg^25, 28Pro-h-amylin [SEQ. ID. NO. […] These preferred compounds include ^25Pro^26Val^28, 29Pro-h-amylin [SEQ. ID. NO. 12], ^25, 28, 29Pro-h-amylin, and ^18Arg^25, 28Pro-h-amylin.

Solubility = type: physicochemical; conditions: where a comparison is made, compared with human amylin
Excerpt: as §1, §2

amylin receptors = molecular target: T1, amylin receptors (Rattus norvegicus, UniProt P32214); experiment: Receptor binding assay (125I-rat amylin competition, rat basal forebrain membranes); conditions: competition with 125I-rat amylin at 12-16 pM
T1 construct: This basal forebrain tissue, containing the nucleus accumbens and surrounding regions, was weighed and homogenized; from tissue; host or cells: rat basal forebrain (nucleus accumbens and surrounding regions) membranes
T1 sequence (P32214 25-516): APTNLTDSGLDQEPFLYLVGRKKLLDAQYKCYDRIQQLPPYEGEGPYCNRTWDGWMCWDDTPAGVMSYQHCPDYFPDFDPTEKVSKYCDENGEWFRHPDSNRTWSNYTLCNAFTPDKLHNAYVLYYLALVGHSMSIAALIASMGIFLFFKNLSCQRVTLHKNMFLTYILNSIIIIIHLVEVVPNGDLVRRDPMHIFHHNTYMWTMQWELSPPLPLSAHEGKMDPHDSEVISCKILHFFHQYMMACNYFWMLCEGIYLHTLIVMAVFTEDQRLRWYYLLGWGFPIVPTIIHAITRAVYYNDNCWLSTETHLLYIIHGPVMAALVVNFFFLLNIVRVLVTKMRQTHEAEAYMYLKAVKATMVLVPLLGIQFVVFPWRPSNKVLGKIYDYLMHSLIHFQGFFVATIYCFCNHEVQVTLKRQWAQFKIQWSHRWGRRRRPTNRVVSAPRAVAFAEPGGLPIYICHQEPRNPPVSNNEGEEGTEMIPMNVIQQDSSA
T1 sequence (Q9JJ74 27-148 partner): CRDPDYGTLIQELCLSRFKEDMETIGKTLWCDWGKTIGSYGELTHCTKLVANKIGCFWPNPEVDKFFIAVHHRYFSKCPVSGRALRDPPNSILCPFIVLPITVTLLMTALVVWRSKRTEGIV
Excerpt: Unlabeled peptides were obtained from BACHEM Inc. (Torrance, Calif.) and Peninsula Laboratories (Belmont, Calif.).
Male Sprague-Dawley rats (200-250) grams were sacrificed by decapitation. Brains were removed to cold phosphate-buffered saline (PBS). From the ventral surface, cuts were made rostral to the hypothalamus, bounded laterally by the olfactory tracts and extending at a 45Ε angle medially from these tracts. This basal forebrain tissue, containing the nucleus accumbens and surrounding regions, was weighed and homogenized in ice-cold 20 mM HEPES buffer (20 mM HEPES acid, pH adjusted to 7.4 with NaOH at 23ΕC). […] The final membrane pellet was resuspended in 20 mM HEPES buffer containing 0.2 mM phenylmethylsulfonyl fluoride (PMSF).
Solutions were incubated for 60 minutes at 2ΕC. […] Filters were washed immediately before filtration with 5 ml cold PBS, and immediately after filtration with 15 ml cold PBS.

Molecule | stability in solution (Stability in solution) | solubility (Solubility) | IC50 (amylin receptors)
CC[C@H](C)[C@H](NC(=O)[C@H](C)NC(=O)CNC(=O)[C@H](Cc1ccccc1)NC(=O)[C@H](CC(N)=O)NC(=O)[C@H](CC(N)=O)NC(=O)[C@H](CO)NC(=O)[C@H](CO)NC(=O)[C@H](Cc1c[nH]cn1)NC(=O)[C@@H](NC(=O)[C@H](CC(C)C)NC(=O)[C@H](Cc1ccccc1)NC(=O)[C@H](CC(N)=O)NC(=O)[C@H](C)NC(=O)[C@H](CC(C)C)NC(=O)[C@H](CCCNC(=N)N)NC(=O)[C@H](CCC(N)=O)NC(=O)[C@@H](NC(=O)[C@H](C)NC(=O)[C@@H]1CSSC[C@H](NC(=O)[C@@H](N)CCCCN)C(=O)N[C@@H](CC(N)=O)C(=O)N[C@@H]([C@@H](C)O)C(=O)N[C@@H](C)C(=O)N[C@@H]([C@@H](C)O)C(=O)N1)[C@@H](C)O)C(C)C)C(=O)N[C@@H](CC(C)C)C(=O)N[C@@H](CO)C(=O)N[C@@H](CO)C(=O)N[C@H](C(=O)N[C@@H](CC(N)=O)C(=O)N[C@H](C(=O)NCC(=O)N[C@@H](CO)C(=O)N[C@@H](CC(N)=O)C(=O)N[C@H](C(=O)N[C@@H](Cc1ccc(O)cc1)C(N)=O)[C@@H](C)O)C(C)C)[C@@H](C)O [human amylin] | limited stability | limited solubility | –
rat amylin | higher | higher | –
CC[C@H](C)[C@H](NC(=O)[C@H](C)NC(=O)CNC(=O)[C@H](Cc1ccccc1)NC(=O)[C@H](CC(N)=O)NC(=O)[C@H](CC(N)=O)NC(=O)[C@H](CO)NC(=O)[C@H](CO)NC(=O)[C@H](Cc1c[nH]cn1)NC(=O)[C@@H](NC(=O)[C@H](CC(C)C)NC(=O)[C@H](Cc1ccccc1)NC(=O)[C@H](CC(N)=O)NC(=O)[C@H](C)NC(=O)[C@H](CC(C)C)NC(=O)[C@H](CCCNC(=N)N)NC(=O)[C@H](CCC(N)=O)NC(=O)[C@@H](NC(=O)[C@H](C)NC(=O)[C@@H]1CCCCNC(=O)C[C@H](NC(=O)[C@@H](N)CCCCN)C(=O)N[C@@H](CC(N)=O)C(=O)N[C@@H]([C@@H](C)O)C(=O)N[C@@H](C)C(=O)N[C@@H]([C@@H](C)O)C(=O)N1)[C@@H](C)O)C(C)C)C(=O)N[C@@H](CC(C)C)C(=O)N[C@@H](CO)C(=O)N[C@@H](CO)C(=O)N[C@H](C(=O)N[C@@H](CC(N)=O)C(=O)N[C@H](C(=O)NCC(=O)N[C@@H](CO)C(=O)N[C@@H](CC(N)=O)C(=O)N[C@H](C(=O)N[C@@H](Cc1ccc(O)cc1)C(N)=O)[C@@H](C)O)C(C)C)[C@@H](C)O [Example 3, ^2, 7Cyclo-[^2Asp, ^7Lys]-h-Amylin] (HELM PEPTIDE1{K.D.N.T.A.T.K.A.T.Q.R.L.A.N.F.L.V.H.S.S.N.N.F.G.A.I.L.S.S.T.N.V.G.S.N.T.Y.[am]}$PEPTIDE1,PEPTIDE1,2:R3-7:R3$$$V2.0) | – | – | 0.31 nM
